What was measured:
[1] = tested on: Malus communis (Apple); test: Trunk injection, percent of growth based upon a control; type: in vivo; conditions: 35 days after treatment
Experimental: (§1) The examples which follow exemplify the improvements obtained by this invention. However, these examples are not intended to limit the scope of the invention. In Examples 1-41, the subject trees were injected at a distance approximately one foot from the soil line by drilling 7/32 inch diameter holes to a 2 inch depth at a 30-45° angle tangential to the trunk with a pressure injector (150 psi) purchased from the Asplundh Tree Expert Co., Company No. 346-3502. The results are expressed in terms of Retardation and Uniformity Ratings. The Retardation rating scale is as follows: • 0 = no retardataion • 1 = 1-20% retardation • 2 = 21-40% retardation • 3 = 41-60% retardation • 4 = 61-80% retardation • 5 = 81-100% retardation
(2RS, 3RS)-1-(4-chlorophenyl-4,4-dimethyl-2,-1,2,4-triazol-1-yl)pentan-3-ol (PGR) was dissolved in 1 liter of solvent at room temperature and the resulting solution was stirred until clear, approximately 20 to 30 minutes. Two equal aliquots of the resulting solution were injected into two injection holes of the trunk of Malus communis (Apple) having a trunk diameter at the point of injection approximately 4 to 5 inches. The injection holes were approximately 12 inches above the soil surface. The percent of growth, based upon a control, was measured 35 days after treatment.

[2] = tested on: Water Oak; test: Trunk injection, holes at 8 inch intervals, Retardation and Uniformity Ratings; type: in vivo, Quercus nigra (Water Oak); design: key to Uniformity Rating (U): 0 = no effect from PGR; 1 = poor; 2 = fair; 3 = acceptable; 4 = very good; 5 = excellent; key to Retardation Rating (R): 0 = no retardataion; 1 = 1-20% retardation; 2 = 21-40% retardation; 3 = 41-60% retardation; 4 = 61-80% retardation; 5 = 81-100% retardation; conditions: 75 ml/hole
Experimental: as §1
(§2) The Uniformity Rating is a measure of the consistency of response to the treatment between different branches of the tree. The Uniformity scale employed is as follows: • 0 = no effect from PGR • 1 = poor • 2 = fair • 3 = acceptable • 4 = very good • 5 = excellent
10 (0.034 moles), 20 (0.068 moles) and 40 grams (0.136 moles) of (2RS, 3RS)-1-(4-chlorophenyl)-4,4-dimethyl-2-1,2,4-triazol-1-yl)pentan-3-ol (PGR) was dissolved in 1,1 and 1 liter, respectively, of methanol at room temperature and was stirred until the solution was clear, approximately 20 to 60 minutes. In these examples, the injection holes were placed at approximate 8 inch intervals.

[3] = tested on: Willow Oak; test: Trunk injection, holes at 4 inch intervals, Retardation and Uniformity Ratings; type: in vivo, Quercus phellos (Willow Oak); design: key to Uniformity Rating (U): 0 = no effect from PGR; 1 = poor; 2 = fair; 3 = acceptable; 4 = very good; 5 = excellent; conditions: 38 ml/hole
Experimental: as §1, §2
10 (0.034 moles), 20 (0.068 moles) and 40 grams (0.136 moles) of (2RS, 3RS)-1-(4-chlorophenyl)-4,4-dimethyl-2-l,2,4-triazol-l-yl)pentan-3-ol (PGR) were dissolved in 1,1 and 1 liter, respectively, of methanol at room temperature and was stirred until the solution was clear, approximately 20 to 60 minutes. In these examples, the injection holes were placed at approximate 4 inch intervals.

[4] = week 24, 10 g PGR in 1 liter methanol, listed as 7, 10 injection holes, 750 ml per tree
[5] = week 24, 10 g PGR in 1 liter methanol, listed as 8, 10 injection holes, 750 ml per tree
[6] = week 24, 10 g PGR in 1 liter methanol, listed as 9, 6 injection holes, 450 ml per tree
[7] = week 24, 10 g PGR in 1 liter methanol, listed as 10, 6 injection holes, 450 ml per tree
[8] = week 24, 20 g PGR in 1 liter methanol, listed as 11
[9] = week 24, 20 g PGR in 1 liter methanol, listed as 12
[10] = week 24, 20 g PGR in 1 liter methanol, listed as 13
[11] = week 24, 40 g PGR in 1 liter methanol, listed as 15, 7 injection holes, 525 ml per tree
[12] = week 24, 40 g PGR in 1 liter methanol, listed as 16, 10 injection holes, 750 ml per tree
[13] = week 24, 40 g PGR in 1 liter methanol, listed as 17, 6 injection holes, 450 ml per tree
[14] = week 56, 10 g PGR in 1 liter methanol, listed as 7, 10 injection holes, 750 ml per tree
[15] = week 56, 10 g PGR in 1 liter methanol, listed as 8, 10 injection holes, 750 ml per tree
[16] = week 56, 10 g PGR in 1 liter methanol, listed as 9, 6 injection holes, 450 ml per tree
[17] = week 56, 10 g PGR in 1 liter methanol, listed as 10, 6 injection holes, 450 ml per tree
[18] = week 56, 20 g PGR in 1 liter methanol, listed as 11
[19] = week 56, 20 g PGR in 1 liter methanol, listed as 12
[20] = week 56, 20 g PGR in 1 liter methanol, listed as 13
[21] = week 56, 40 g PGR in 1 liter methanol, listed as 15, 7 injection holes, 525 ml per tree
[22] = week 56, 40 g PGR in 1 liter methanol, listed as 16, 10 injection holes, 750 ml per tree
[23] = week 56, 40 g PGR in 1 liter methanol, listed as 17, 6 injection holes, 450 ml per tree
[24] = week 24, 20 g PGR in 1 liter methanol
[25] = week 24, 40 g PGR in 1 liter methanol
[26] = week 56, 20 g PGR in 1 liter methanol
[27] = week 56, 40 g PGR in 1 liter methanol

SMILES: CC(C)(C)[C@@H](O)[C@@H](Cc1ccc(Cl)cc1)n1cncn1 (racemic) [Formula (II), (2RS,3RS)-1-(4-chlorophenyl-4,4-dimethyl-2-1,2,4-triazol-1-yl)pentan-3-ol]
- Growth, % of Control ([1]; 2 g PGR in 1 liter Water, total inj. vol. not given): 84 % of Control
- Growth, % of Control ([1]; 2.5 g PGR in 1 liter Ethanol, total inj. vol. 200 ml): 58 % of Control
- Growth, % of Control ([1]; 5 g PGR in 1 liter Ethanol, total inj. vol. 100 ml): 59 % of Control
- Growth, % of Control ([1]; 5 g PGR in 1 liter Ethanol, total inj. vol. 200 ml): 58 % of Control
- Growth, % of Control ([1]; 10 g PGR in 1 liter Ethanol, total inj. vol. 50 ml): 70 % of Control
- Growth, % of Control ([1]; 10 g PGR in 1 liter Ethanol, total inj. vol. 100 ml): 76 % of Control
- Growth, % of Control ([1]; 10 g PGR in 1 liter Ethanol, total inj. vol. 200 ml): 56 % of Control
- Growth, % of Control ([1]; 10 g PGR in 1 liter Methanol, total inj. vol. 200 ml): 59 % of Control
- Growth, % of Control ([1]; 10 g PGR in 1 liter Water, total inj. vol. 50 ml): 100 % of Control
- Growth, % of Control ([1]; 10 g PGR in 1 liter Water, total inj. vol. 100 ml): 103 % of Control
- Growth, % of Control ([1]; 20 g PGR in 1 liter Ethanol, total inj. vol. 25 ml): 79 % of Control
- Growth, % of Control ([1]; 20 g PGR in 1 liter Ethanol, total inj. vol. 50 ml): 82 % of Control
- Growth, % of Control ([1]; 20 g PGR in 1 liter Ethanol, total inj. vol. 100 ml): 60 % of Control
- Growth, % of Control ([1]; 20 g PGR in 1 liter Methanol, total inj. vol. 100 ml): 60 % of Control
- Growth, % of Control ([1]; 40 g PGR in 1 liter Ethanol, total inj. vol. 25 ml): 77 % of Control
- Growth, % of Control ([1]; 40 g PGR in 1 liter Ethanol, total inj. vol. 50 ml): 72 % of Control
- Growth, % of Control ([1]; 40 g PGR in 1 liter Methanol, total inj. vol. 50 ml): 76 % of Control
- Growth, % of Control ([1]; 40 g PGR in 1 liter Methanol, total inj. vol. 100 ml): 52 % of Control
- Growth, % of Control ([1]; 50 g PGR in 1 liter Ethanol, total inj. vol. 10 ml): 90 % of Control
- Growth, % of Control ([1]; 80 g PGR in 1 liter Methanol, total inj. vol. 25 ml): 68 % of Control
- Retardation Rating (R) [2, 4]: 2 (2 = 21-40% retardation)
- Uniformity Rating (U) [2, 4]: 3
- Retardation Rating (R) [2, 5]: 3 (3 = 41-60% retardation)
- Uniformity Rating (U) [2, 5]: 3
- Retardation Rating (R) [2, 6]: 3 (3 = 41-60% retardation)
- Uniformity Rating (U) [2, 6]: 3
- Retardation Rating (R) [2, 7]: 5 (5 = 81-100% retardation)
- Uniformity Rating (U) [2, 7]: 5
- Retardation Rating (R) [2, 8]: 2 (2 = 21-40% retardation)
- Uniformity Rating (U) [2, 8]: 3
- Retardation Rating (R) [2, 9]: 5 (5 = 81-100% retardation)
- Uniformity Rating (U) [2, 9]: 5
- Retardation Rating (R) [2, 10]: 4 (4 = 61-80% retardation)
- Uniformity Rating (U) [2, 10]: 4
- Retardation Rating (R) [2, 11]: 1 (1 = 1-20% retardation)
- Uniformity Rating (U) [2, 11]: 1
- Retardation Rating (R) [2, 12]: 0
- Uniformity Rating (U) [2, 12]: 0
- Retardation Rating (R) [2, 13]: 3 (3 = 41-60% retardation)
- Uniformity Rating (U) [2, 13]: 3
- Retardation Rating (R) [2, 14]: 3 (3 = 41-60% retardation)
- Uniformity Rating (U) [2, 14]: 3
- Retardation Rating (R) [2, 15]: 3 (3 = 41-60% retardation)
- Uniformity Rating (U) [2, 15]: 3
- Retardation Rating (R) [2, 16]: 5 (5 = 81-100% retardation)
- Uniformity Rating (U) [2, 16]: 4
- Retardation Rating (R) [2, 17]: 5 (5 = 81-100% retardation)
- Uniformity Rating (U) [2, 17]: 5
- Retardation Rating (R) [2, 18]: 4 (4 = 61-80% retardation)
- Uniformity Rating (U) [2, 18]: 5
- Retardation Rating (R) [2, 19]: 5 (5 = 81-100% retardation)
- Uniformity Rating (U) [2, 19]: 4
- Retardation Rating (R) [2, 20]: 4 (4 = 61-80% retardation)
- Uniformity Rating (U) [2, 20]: 4
- Retardation Rating (R) [2, 21]: 4 (4 = 61-80% retardation)
- Uniformity Rating (U) [2, 21]: 4
- Retardation Rating (R) [2, 22]: 3 (3 = 41-60% retardation)
- Uniformity Rating (U) [2, 22]: 3
- Retardation Rating (R) [2, 23]: 3 (3 = 41-60% retardation)
- Uniformity Rating (U) [2, 23]: 3
- Retardation Rating (R) [3, 24]: 4 (4 = 61-80% retardation)
- Uniformity Rating (U) [3, 24]: 3
- Retardation Rating (R) [3, 25]: 4 (4 = 61-80% retardation)
- Uniformity Rating (U) [3, 25]: 4
- Retardation Rating (R) [3, 26]: 5 (5 = 81-100% retardation)
- Uniformity Rating (U) [3, 26]: 5
- Retardation Rating (R) [3, 27]: 4 (4 = 61-80% retardation)
- Uniformity Rating (U) [3, 27]: 4
